Like-named read-outs stand apart in the source and are kept apart here.
Biological target: 11β-hsd-1 enzyme (Homo sapiens, UniProt P28845)
Assay: 11β-hsd-1 enzyme assay, percentage of inhibition (3H-cortisone to cortisol, radio-HPLC)
Format: biochemical
Conditions: for inhibition at 0.1 µM: read-out: % inh @ 0.1 uM

Chain of 11β-hsd-1 enzyme (P28845 whole entry, species assumed): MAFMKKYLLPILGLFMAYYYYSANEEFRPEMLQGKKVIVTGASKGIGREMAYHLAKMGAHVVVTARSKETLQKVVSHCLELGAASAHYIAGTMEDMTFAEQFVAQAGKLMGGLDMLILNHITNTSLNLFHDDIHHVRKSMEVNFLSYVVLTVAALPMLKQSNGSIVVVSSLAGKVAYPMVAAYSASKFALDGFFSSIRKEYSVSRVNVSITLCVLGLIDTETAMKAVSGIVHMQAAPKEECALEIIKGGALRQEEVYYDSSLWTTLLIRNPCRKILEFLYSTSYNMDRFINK

Row | Compound | inhibition at 0.1 µM (0.1 uM) | also measured
1 | COC(=O)CCc1ccc(NS(=O)(=O)c2cccc(Cl)c2C)nc1 [Example 3] | 19.6% | –
2 | COC(=O)c1cccc(NS(=O)(=O)c2cccc(Cl)c2C)n1 [Example 4] | 23.9% | –
3 | CCOC(=O)Cc1cccc(NS(=O)(=O)c2ccc(C(F)(F)F)cc2)n1 [Example 5] | 0.3% | –
4 | COC(=O)c1cccc(NS(=O)(=O)c2ccc(-c3ccc(C#N)cc3)cc2)n1 [Example 7] | 7.7% | –
5 | Cc1c(Cl)cccc1S(=O)(=O)Nc1cccc(CC(=O)N2CCOCC2)n1 [Example 8, 3-Chloro-2-methyl-N-[6-(2-morpholin-4-yl-2-oxo-ethyl)-pyridin-2-yl]-benzenesulfonamide] | 5.52% | –
6 | Cc1c(Cl)cccc1S(=O)(=O)Nc1cccc(CC(=O)N2CCCCC2)n1 [Example 9] | 54.8% | –
7 | Cc1c(Cl)cccc1S(=O)(=O)Nc1cccc(CC(=O)N2CCSCC2)n1 [Example 10] | 38.7% | –
8 | Cc1c(Cl)cccc1S(=O)(=O)Nc1cccc(CC(=O)N2CCN(C)CC2)n1 [Example 11] | – | inhibition at 0.1 µM: 8.05%
9 | Cc1c(Cl)cccc1S(=O)(=O)Nc1cccc(CC(=O)N2CCN(Cc3ccccc3)CC2)n1 [Example 12] | – | inhibition at 0.1 µM: 21.5%
10 | Cc1c(Cl)cccc1S(=O)(=O)Nc1cccc(CC(=O)NCc2ccc(C(F)(F)F)cc2)n1 [Example 13] | 9.1% | –
11 | Cc1cc(CC(=O)N2CCCCC2)nc(NS(=O)(=O)c2cccc(Cl)c2C)c1 [Example 14] | 25.9% | –
12 | CCN(CC)C(=O)Cc1cc(C)cc(NS(=O)(=O)c2cccc(Cl)c2C)n1 [Example 15] | 23.6% | –
13 | C=CCN(C)C(=O)Cc1cccc(NS(=O)(=O)c2cccc(Cl)c2C)n1 [Example 16] | 10.9% | –
14 | Cc1c(Cl)cccc1S(=O)(=O)Nc1cccc(CC(=O)N2CCCC2)n1 [Example 17] | 11.4% | –
15 | CCN(CC)C(=O)CCc1ccc(NS(=O)(=O)c2cccc(Cl)c2C)nc1 [Example 18] | 34.6% | –
16 | CCN(CC)C(=O)Cc1cccc(NS(=O)(=O)c2ccc(C)cc2)n1 [Example 23] | 4.9% | –
17 | CCN(CC)C(=O)Cc1cccc(NS(=O)(=O)c2ccc(F)cc2)n1 [Example 24] | 3.7% | –
18 | CCN(CC)C(=O)Cc1cccc(NS(=O)(=O)c2ccc(C(C)C)cc2)n1 [Example 25] | 42.8% | –
19 | Cc1c(Cl)cccc1S(=O)(=O)Nc1cccc(CC(=O)O)n1 [Example 26, [6-(3-Chloro-2-methyl-benzenesulfonylamino)-pyridin-2-yl]-acetic acid] | 25.2% | –
20 | Cc1c(Cl)cccc1S(=O)(=O)Nc1cccc(CC(=O)NC23CC4CC(CC(C4)C2)C3)n1 [Example 27, N-Adamantan-1-yl-2-[6-(3-chloro-2-methyl-benzenesulfonylamino)-pyridin-2-yl]-acetamide] | 1.9% | –
21 | Cc1c(Cl)cccc1S(=O)(=O)Nc1cccc(CC(=O)N2CCCC(C)(C)C2)n1 [Example 28] | 45.6% | –
22 | Cc1c(Cl)cccc1S(=O)(=O)Nc1cccc(CC(=O)N(CCC#N)C2CC2)n1 [Example 29] | 10.9% | –

Row | Compound | inhibition at 0.1 µM (0.1 uM) | also measured
23 | Cc1c(Cl)cccc1S(=O)(=O)Nc1cccc(CC(=O)N(C)C(C)C)n1 [Example 30] | 15.9% | –
24 | Cc1c(Cl)cccc1S(=O)(=O)Nc1cccc(CC(=O)N(C)C)n1 [Example 31] | 11.3% | –
25 | Cc1c(Cl)cccc1S(=O)(=O)Nc1cccc(CC(=O)N2CCC(F)(F)CC2)n1 [Example 32] | 20.4% | –
26 | Cc1cc(C)nc(NS(=O)(=O)c2cccc(Cl)c2C)c1 [Example 44] | 16% | –
27 | Cc1cc(C)nc(NS(=O)(=O)c2ccc(C(F)(F)F)cc2)c1 [Example 45] | – | % inh @ 0.1 uM (0.1 uM): 35%
28 | Cc1cccc(NS(=O)(=O)c2ccc(Oc3ccccc3)cc2)n1 [Example 47] | 21% | –
29 | Cc1ccc(S(=O)(=O)Nc2cccc(C)n2)cc1 [Example 49] | 82.6% | –
30 | Cc1cccc(NS(=O)(=O)c2cccc(C(F)(F)F)c2)n1 [Example 50] | 10.1% | –
31 | Cc1cccc(NS(=O)(=O)c2cccc3ccccc23)n1 [Example 51] | 10.2% | –
32 | Cc1cccc(NS(=O)(=O)c2ccc(C(C)(C)C)cc2)n1 [Example 52] | 32% | –
33 | Cc1cccc(NS(=O)(=O)c2ccc(C#N)cc2Cl)n1 [Example 53] | 10.1% | –
34 | Cc1cccc(NS(=O)(=O)c2ccccc2C(F)(F)F)n1 [Example 54] | 1% | –
35 | Cc1cccc(NS(=O)(=O)c2ccc(F)cc2F)n1 [Example 55] | 7.4% | –
36 | O=S(=O)(Nc1ccc2cc[nH]c2c1)c1ccc(-c2ccc(F)cc2)cc1 [Example 57] | 4.5% | –
37 | Cc1cc(C)nc(NS(=O)(=O)c2cccc(Cl)c2C)n1 [Example 58] | 4% | –
38 | Cc1ccnc(NS(=O)(=O)c2ccc(-c3ccccc3)cc2)n1 [Example 59] | 3.8% | –
39 | O=S(=O)(Nc1ccc2nc[nH]c2c1)c1ccc(-c2ccc(F)cc2)cc1 [Example 60] | 31.9% | –
40 | COc1cccc(NS(=O)(=O)c2ccc(C(F)(F)F)cc2)n1 [Example 62] | 1.3% | –
41 | Cc1cccc(NS(=O)(=O)c2ccc3oc4ccccc4c3c2)n1 [Example 63] | 32.7% | –
42 | O=S(=O)(Nc1cccc(CN2CCOCC2)n1)c1ccc(-c2ccccc2)cc1 [Example 64] | 8.9% | –
43 | Cc1ccc(NS(=O)(=O)c2ccc(-c3ccccc3)cc2)nc1 [Example 66] | 33.8% | –
44 | Cc1cccc(NS(=O)(=O)Cc2cccc(Cl)c2)n1 [Example 67] | 49.6% | –

Continued, in another order:

Row | inhibition at 0.1 µM (0.1 uM) | Compound | also measured
45 | 17.3% | Cc1cccc(NS(=O)(=O)Cc2ccc(C(F)(F)F)cc2)n1 [Example 73] | –
46 | 28.9% | Cc1cccc(NS(=O)(=O)Cc2ccc(Cl)c(Cl)c2)n1 [Example 74] | –
47 | 19.2% | Cc1cccc(NS(=O)(=O)Cc2cc(Cl)cc(Cl)c2)n1 [Example 75] | –
48 | 15.6% | CCc1cccc(NS(=O)(=O)c2ccc(C(C)C)cc2)n1 [Example 76] | –
49 | 35.4% | Cc1cc(C)nc(NS(=O)(=O)c2ccc(C(F)(F)F)cc2)c1 [Example 77] | –
50 | 8.2% | COc1cccc(NS(=O)(=O)c2ccc(-c3ccc(C#N)cc3)cc2)n1 [Example 78] | –
51 | 8.1% | CN(C)Cc1cccc(NS(=O)(=O)c2ccc(-c3ccc(C#N)cc3)cc2)n1 [Example 79] | –
52 | 8% | Cc1cccc(NS(=O)(=O)c2c(Cl)nc3sccn23)n1 [Example 80] | –
53 | 23.4% | COc1ccc(S(=O)(=O)Nc2cccc(C)n2)cc1 [Example 81] | –
54 | 53.4% | N#Cc1ccc(-c2ccc(S(=O)(=O)Nc3ccccn3)cc2)cc1 [Example 82] | –
55 | 11.1% | Cc1cccc(NS(=O)(=O)c2ccc(N3CCOCC3)nc2)n1 [Example 83] | –
56 | 26.4% | Cc1c(S(=O)(=O)Nc2cccc(CN(C)C)n2)sc2ccc(Cl)cc12 [Example 84] | –
57 | 3.7% | COc1ccc(C)nc1NS(=O)(=O)c1ccc(C(F)(F)F)cc1 [Example 89] | –
58 | 24.8% | Cc1cccc(NS(=O)(=O)c2ccc(C#N)cc2)n1 [Example 90] | –
59 | 29.8% | Cc1cccc(NS(=O)(=O)c2ccc(-n3cccn3)cc2)n1 [Example 92] | –
60 | 31.7% | Cc1cc(C)nc(NS(=O)(=O)c2sc(-c3ccccc3)nc2C)c1 [Example 97] | –
61 | 8.9% | Cc1cccc(NS(=O)(=O)c2sc(C)nc2C)n1 [Example 98] | –
62 | 15% | Cc1cccc(NS(=O)(=O)c2cnn(-c3ccccc3)c2C)n1 [Example 99] | –
63 | 19.2% | CC(=O)Nc1nc(C)c(S(=O)(=O)Nc2cc(C)cc(C)n2)s1 [Example 100] | –

Row | inhibition at 0.1 µM (0.1 uM) | Compound | also measured
64 | 32% | Cc1nc(NS(=O)(=O)c2ccc(-c3ccc(C#N)cc3)cc2)ccc1C#N [Example 101] | –
65 | 16.9% | N#Cc1ccc(-c2ccc(S(=O)(=O)Nc3cc(O)c4ccccc4n3)cc2)cc1 [Example 105] | –
66 | 5.4% | Cc1cc(C)c2ccc(NS(=O)(=O)c3ccc(-c4ccc(C#N)cc4)cc3)nc2n1 [Example 106] | –
67 | 8.1% | Cc1cccc(N(C)S(=O)(=O)c2ccc(-c3ccc(C#N)cc3)cc2)n1 [Example 110, 4′-Cyano-biphenyl-4-sulfonic acid methyl-(6-methyl-pyridin-2-yl)-amide] | –
68 | 100% | Cc1cc(N)nc(NS(=O)(=O)c2ccc(-c3ccc(C#N)cc3)cc2)c1 [Example 113, 4′-Cyano-biphenyl-4-sulfonic acid (6-amino-4-methyl-pyridin-2-yl)-amide] | –
69 | 11.3% | Cc1c(Cl)cccc1S(=O)(=O)Nc1cccc(CCO)n1 [Example 114, 3-Chloro-N-[6-(2-hydroxy-ethyl)-pyridin-2-yl]-2-methyl-benzenesulfonamide] | –
70 | 37.2% | Cc1c(Cl)cccc1S(=O)(=O)Nc1cccc(CO)n1 [Example 116] | –
71 | 71.7% | COc1ccccc1-c1ccc(S(=O)(=O)Nc2cccc(C)n2)cc1 [Example 120] | –
72 | 61.4% | CCOc1cccc(-c2ccc(S(=O)(=O)Nc3cccc(C)n3)cc2)c1 [Example 121] | –
73 | 85.7% | Cc1cccc(NS(=O)(=O)c2ccc(-c3ccccc3C(F)(F)F)cc2)n1 [Example 122] | –
74 | 89.9% | Cc1cccc(NS(=O)(=O)c2ccc(-c3ccc(F)c(Cl)c3)cc2)n1 [Example 123] | –
75 | 84% | Cc1ccc(-c2ccc(S(=O)(=O)Nc3cccc(C)n3)cc2)cc1 [Example 124] | –
76 | 87.8% | Cc1cccc(NS(=O)(=O)c2ccc(-c3ccccc3Cl)cc2)n1 [Example 125] | –
77 | 77.6% | Cc1cccc(NS(=O)(=O)c2ccc(-c3ccccc3C)cc2)n1 [Example 126] | –
78 | 100% | C=Cc1ccc(-c2ccc(S(=O)(=O)Nc3cccc(C)n3)cc2)cc1 [Example 127] | –
79 | 86.3% | CSc1ccc(-c2ccc(S(=O)(=O)Nc3cccc(C)n3)cc2)cc1 [Example 129] | –
80 | 78.9% | Cc1cccc(NS(=O)(=O)c2ccc(-c3cccc(C(F)(F)F)c3)cc2)n1 [Example 130] | –
81 | 100% | Cc1cccc(NS(=O)(=O)c2ccc(-c3cc(Cl)cc(Cl)c3)cc2)n1 [Example 131] | –

Source: patent US20050148631A1, “Amino heterocyclyl inhibitors of 11-beta-hydroxy steroid dehydrogenase type 1” (AGOURON PHARMACEUTICALS, INC., priority 2003, published 2005)
